Values quoted from earlier work, collected in patent US8148152B2, “Method for the preparation of embryoid bodies (EBs) and uses thereof” (Axiogenesis AG, priority 2003, dated 2012).

How the values were obtained:
[1] = system: ES cell-derived cardiomyocytes; settings: test compounds with known cardiotoxic potential; added on day 14, effect on fluorescent areas during 72 hours; data only in FIG. 6
[2] = system: EBs from mouse embryonic stem cells (clone D3, pαMHC-GFP); settings: test compounds with known embryotoxic potential from ECVAM list; 10^-8 to 10^-5 M; fluorescence on day 14 as percent of control (0.1% DMSO); data only in FIG. 5

SMILES	cardiotoxic potential (classification of test compound) [1]	embryotoxic potential (classification of test compound) [2]
C[C@@H]1C[C@H]2[C@@H]3CCC4=CC(=O)C=C[C@]4(C)[C@@]3(F)[C@@H](O)C[C@]2(C)[C@@]1(O)C(=O)CO [dexamethasone]	non cardiotoxic	
COC(=O)c1ccccc1C(=O)OC [dimethylphtalate]		non-embryotoxic
COc1cccc2c1C(=O)c1c(O)c3c(c(O)c1C2=O)C[C@@](O)(C(=O)CO)C[C@@H]3O[C@H]1C[C@H](N)[C@H](O)[C@H](C)O1 [doxorubicine]	cardiotoxic	
CN(Cc1cnc2nc(N)nc(N)c2n1)c1ccc(C(=O)N[C@@H](CCC(=O)O)C(=O)O)cc1 [methotrexate]		strong embryotoxic
CCCC(CCC)C(=O)O [valproic acid]		weak embryotoxic
